This note sets out measurements from US8101760B2, “Glucocorticoid receptor modulator and methods of use” (Eli Lilly and Company, priority 2007, dated 2012).

A word on the EC50: it is the concentration giving half of the maximal effect.

For assay [1], the system named is LPS-stimulated TNF-α production in PMA-differentiated U937 cells. The assay can be described thus: GR-mediated transrepression: LPS-stimulated TNF-α production in PMA-differentiated U937 cells. The class given is cell-based. To be noted: Homo sapiens, U-937, mean of 6 determinations, read-out: EC50, inhibition of TNF-α expression. As for the experimental part: 2. LPS-Stimulated TNF-α Production in PMA-Differentiated U937 Cells:
Human U937 pre-monocytic cells (ATCC Catalog #CRL-1593.2) are grown in complete RPMI 1640 medium (ATCC Catalog #30-2001) containing 10% fetal bovine serum (FBS). To allow monocytes to differentiate to adherent macrophages, U937 cells are washed in PBS (Calcium, magnesium-free) and resuspended in fresh RPMI medium containing 20 nM phorbol 12-myristate-13-acetate (PMA) overnight. After differentiation, test compounds are added to the cells in the 96-well plate at various concentrations ranging from about […] to 4.64 μM. 1-hour post treatment with test compound, LPS is added at final concentration of 100 ng/mL and the reaction mixture is incubated overnight.
TNF-α production is measured with an ELISA kit (R&D Systems, Inc., Minneapolis, Minn., U.S.A.) using standard techniques. Briefly, 25 μL cell-free supernatant is transferred to another 96-well plate and 75 μL of assay buffer is added. TNF-α is quantified by reading absorbance at 450 nm. A standard curve of absorbance versus TNF-α concentration is constructed and used to determine the concentration of TNF-α in experimental samples.

The target of assay [2] is T1, human glucocorticoid receptor (GR) (Homo sapiens, UniProt P04150).
T1 construct: expressed in transfected cells; host or cells: HEK293, transient transfection (Fugene), CMV promoter plasmid
T1 sequence (P04150 1-777): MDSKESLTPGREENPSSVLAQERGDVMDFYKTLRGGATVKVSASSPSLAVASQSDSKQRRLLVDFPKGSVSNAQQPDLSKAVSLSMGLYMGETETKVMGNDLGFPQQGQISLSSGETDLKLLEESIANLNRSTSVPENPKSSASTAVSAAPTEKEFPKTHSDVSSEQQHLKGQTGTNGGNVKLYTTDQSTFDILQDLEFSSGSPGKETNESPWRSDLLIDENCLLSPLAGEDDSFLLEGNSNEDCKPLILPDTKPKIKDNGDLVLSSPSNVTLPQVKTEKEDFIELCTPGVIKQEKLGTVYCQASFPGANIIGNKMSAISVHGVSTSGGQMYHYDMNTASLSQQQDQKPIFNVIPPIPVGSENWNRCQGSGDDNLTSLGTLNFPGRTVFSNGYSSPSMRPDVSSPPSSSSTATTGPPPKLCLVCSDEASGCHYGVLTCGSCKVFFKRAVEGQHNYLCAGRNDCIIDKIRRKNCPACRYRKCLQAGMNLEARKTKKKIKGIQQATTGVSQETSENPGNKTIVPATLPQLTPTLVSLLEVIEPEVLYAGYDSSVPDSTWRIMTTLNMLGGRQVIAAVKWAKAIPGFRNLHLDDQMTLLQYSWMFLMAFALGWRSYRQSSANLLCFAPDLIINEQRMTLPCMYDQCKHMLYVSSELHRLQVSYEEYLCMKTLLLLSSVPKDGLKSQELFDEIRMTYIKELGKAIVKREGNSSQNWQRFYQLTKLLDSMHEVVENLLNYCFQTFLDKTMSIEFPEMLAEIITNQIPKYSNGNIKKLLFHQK
The assay can be described thus: Nuclear hormone receptor functional modulation assay (GRE-luciferase, HEK293), GR. The class given is cell-based. An excerpt:
The solvents, reagents, and ligands employed in the functional assay are readily available from commercial sources, or can be prepared by one of ordinary skill in the art.
Human embryonic kidney HEK293 cells are transfected with steroid hormone receptor and reporter gene plasmids using Fugene™ (Roche Diganostics) transfection reagent. Briefly, the reporter plasmid containing two copies of probasin ARE (androgen response element 5′GGTTCTTGGAGTACT3′ (SEQ ID NO:1)) and TK(thymidine kinase) promoter upstream of the luciferase reporter cDNA, is transfected into HEK293 cells with a plasmid constitutively expressing human androgen receptor (AR) using viral CMV(cytomegalovirus) promoter. The reporter plasmid containing two copies of GRE (glucocorticoid response element 5′TGTACAGGATGTTCT′3 (SEQ ID NO:2)) and TK promoter upstream of the luciferase reporter cDNA is transfected with a plasmid constitutively expressing either human glucocorticoid receptor (GR), human mineralocorticoid receptor (MR), or human progesterone receptor (PR) using viral CMV promoter. Cells are transfected in T150 cm flasks in DMEM media with 5% charcoal-stripped Fetal Bovine Serum (FBS). […] In the antagonist mode for the assays, low concentrations of agonist for each respective receptor are added to the media (0.25 nM dexamethasone for GR, 0.3 nM of methyltrienolone for AR, 0.05 nM of promegestone for PR and 0.05 nM aldosterone for MR), and the ability of test compound to antagonize the agonist response is determined. After 24 hours of incubation with test compounds, cells are lysed and luciferase activity is determined using standard techniques.
Data are fitted to a four parameter-fit logistic curve fit to determine EC50 values. […] IC50 values may be determined similarly using antagonist mode assay data. Percent inhibitions may also be determined relative to the response in the presence of agonist alone, as described above.

Take `CC/C(=C1\c2ccc(Cl)cc2OCc2ncccc21)c1cccc(NS(C)(=O)=O)c1` [Compound (I), (E)-N-{3-[1-(8-Chloro-11H-10-oxa-1-aza-dibenzo[a,d]cyclohepten-5-ylidene)-propyl]-phenyl}-methanesulfonamide]: the EC50 in assay [1] is approximately 30 nM; in assay [2] (agonist mode, activating transcription, mean of 3) it was 1.9 nM. The Emax in assay [2] (HEK293, partial agonist activity, read-out: maximal efficacy in inducing GR/GRE-mediated gene transcription (transactivation)) is less than 50%. The “GR % Eff.” value in assay [2] (percent efficacy at 10 μM relative to 100 nM dexamethasone, mean of 3) is 45.7%.
